Experimental data reported in patent publication EP4653437A2 (Innovo Therapeutics Inc., priority 2023, dated 2024).

Tests used:
[1] = tested on: A549 cells; experiment: Measurement of PGE2-increasing activity in A549 cells (IL-1β stimulated, PGE2 quantified in supernatant); assay type: cell-based; settings: Homo sapiens, 24 h; concentration of 1 µM of each compound; IL-1β treated A549 cells; read-out: Increased PGE2 production in A549 cells
Outline: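 PGE2 secreted into the supernatant was measured by immunoassay 24 h after treatment. Before treatment, A549 cells were cultured 24 h in 10% FBS F12K, washed, and placed in serum-free medium containing compound (DMSO 0.1% final) plus or minus IL-1β, incubated at 37 °C, 5% CO2.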

[2] = biological target: T1, human 15-PGDH (Homo sapiens, UniProt P15428); experiment: Evaluation of 15-PGDH inhibitory activity (fluorescence enzyme assay, NAD+/PGE2); assay type: biochemical; settings: human 15-PGDH enzyme, fluorescence Vmax
T1 construct: purchased R&D System 5660-DH
T1 sequence (P15428 1-266): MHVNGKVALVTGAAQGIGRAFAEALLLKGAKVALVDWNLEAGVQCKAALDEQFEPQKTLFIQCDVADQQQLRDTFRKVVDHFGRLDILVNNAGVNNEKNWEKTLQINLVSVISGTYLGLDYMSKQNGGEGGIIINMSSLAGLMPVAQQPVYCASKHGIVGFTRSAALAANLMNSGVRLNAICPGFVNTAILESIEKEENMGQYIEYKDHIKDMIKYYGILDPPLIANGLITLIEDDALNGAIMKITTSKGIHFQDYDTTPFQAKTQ
Method: 15-PGDH inhibition activity of Example compounds was measured as follows. 6.7 ng of human 15-PGDH (R&D System# 5660-DH) enzyme (10 µL) was added to a black 96 well plate, 60 µL of buffer (50 mM Tris-HCl, pH 7.5, 0.01% Tween 20) was added, and 10 µL of 200 µM β-Nicotinamide adenine dinucleotide sodium salt (Sigma, Cat# N0632-5G) was added. 10 µL of (10x) compound solution in DMSO was added and reacted for 10 minutes at room temperature.

Structure (SMILES)	fold induction at 1 µM [1]	IC50 [2] [µM]
CNC(=O)c1ncc(-c2cccc3c(C(=O)N4CCCCC4)cnn23)cc1F [Example 250, 3-fluoro-N-methyl-5-[3-(piperidine-1-carbonyl)pyrazolo[1,5-a]pyridin-7-yl]pyridine-2-carboxamide]	> 1.5	≤ 0.1
Cn1cnc2cc(-c3cccc4c(C(=O)N5CCCCC5)cnn34)ccc2c1=O [Example 251, 3-methyl-7-(3-(piperidine-1-carbonyl)pyrazolo[1,5-a]pyridin-7-yl)quinazolin-4(3H)-one]	> 1.5	≤ 0.1
Cn1nc2cc(-c3cccc4c(C(=O)N5CCCCC5)cnn34)ccn2c1=O [Example 252, 2-methyl-7-(3-(piperidine-1-carbonyl)pyrazolo[1,5-a]pyridin-7-yl)-[1,2,4]triazolo[4,3-a]pyridin-3(2H)-one]	> 1.5	≤ 0.1
O=C(c1cnn2c(-c3cccc(C=NO)c3)cccc12)N1CCCCC1 [Example 253, 3-(3-(piperidine-1-carbonyl)pyrazolo[1,5-a]pyridin-7-yl)benzaldehyde oxime]	> 1.5	≤ 0.1
N#Cc1cc(-c2cccc3c(C(=O)N4CCCCC4)cnn23)ccc1F [Example 254, 2-fluoro-5-[3-(piperidine-1-carbonyl)pyrazolo[1,5-a]pyridin-7-yl]benzonitrile]	> 1.5	≤ 0.1
Cn1cnc2ncc(-c3cccc4c(C(=O)N5CCCCC5)cnn34)cc2c1=O [Example 255, 3-methyl-6-(3-(piperidine-1-carbonyl)pyrazolo[1,5-a]pyridin-7-yl)pyrido[2,3-d]pyrimidin-4(3H)-one]	> 1.5	≤ 0.1
O=C(c1cnn2c(-c3ccnc(N4CC(F)C4)c3)cccc12)N1CCCCC1 [Example 257, (7-(2-(3-fluoroazetidin-1-yl)pyridin-4-yl)pyrazolo[1,5-a]pyridin-3-yl)(piperidin-1-yl)methanone]	< 1.5	≤ 0.1
O=C(O)c1ncc(-c2cccc3c(C(=O)N4CCCCC4)cnn23)cc1Cl [Example 258, 3-chloro-5-[3-(piperidine-1-carbonyl)pyrazolo[1,5-a]pyridin-7-yl]pyridine-2-carboxylic acid]	< 1.5	≤ 0.1
Nc1noc2ccc(-c3cccc4c(C(=O)N5CCCCC5)cnn34)cc12 [Example 259, [7-(3-amino-1,2-benzoxazol-5-yl)pyrazolo[1,5-a]pyridin-3-yl]-(1-piperidyl)methanone]	> 1.5	≤ 0.1
Nc1n[nH]c2ccc(-c3cccc4c(C(=O)N5CCCCC5)cnn34)cc12 [Example 260, [7-(3-amino-1H-indazol-5-yl)pyrazolo[1,5-a]pyridin-3-yl]-(1-piperidyl)methanone]	> 1.5	≤ 0.1
Cn1nc(N)c2cc(-c3cccc4c(C(=O)N5CCCCC5)cnn34)ccc21 [Example 261, [7-(3-amino-1-methyl-indazol-5-yl)pyrazolo[1,5-a]pyridin-3-yl]-(1-piperidyl)methanone]	> 1.5	≤ 0.1
CNC(=O)c1ncc(-c2cccc3c(C(=O)N4CCCCC4)cnn23)cc1Cl [Example 262, 3-chloro-N-methyl-5-[3-(piperidine-1-carbonyl)pyrazolo[1,5-a]pyridin-7-yl]pyridine-2-carboxamide]	> 1.5	≤ 0.1
Cc1nc(-c2ncc(-c3cccc4c(C(=O)N5CCCCC5)cnn34)cc2F)no1 [Example 263, [7-[5-fluoro-6-(5-methyl-1,2,4-oxadiazol-3-yl)-3-pyridyl]pyrazolo[1,5-a]pyridin-3-yl]-(1-piperidyl)methanone]	> 1.5	≤ 0.1
O=C(c1cnn2c(-c3ccccc3Cl)cccc12)N1CCCCC1 [Example 264, (7-(2-chlorophenyl)pyrazolo[1,5-a]pyridin-3-yl)(piperidin-1-yl)methanone]	> 1.5	≤ 0.1
O=C(c1cnn2c(-c3cc(Br)cnc3F)cccc12)N1CCCCC1 [Example 265, (7-(5-bromo-2-fluoropyridin-3-yl)pyrazolo[1,5-a]pyridin-3-yl)(piperidin-1-yl)methanone]	> 1.5	≤ 0.1
O=C(c1cnn2c(-c3ccc(F)nc3F)cccc12)N1CCCCC1 [Example 266, (7-(2,6-difluoropyridin-3-yl)pyrazolo[1,5-a]pyridin-3-yl)(piperidin-1-yl)methanone]	> 1.5	≤ 0.1

Structure (SMILES)	fold induction at 1 µM [1]	IC50 [2] [µM]
O=C(c1cnn2c(-c3cnc(Cl)nc3)cccc12)N1CCCCC1 [Example 267, (7-(2-chloropyrimidin-5-yl)pyrazolo[1,5-a]pyridin-3-yl)(piperidin-1-yl)methanone]	> 1.5	≤ 0.1
Cn1oc2ccc(-c3cccc4c(C(=O)N5CCCCC5)cnn34)cc2c1=O [Example 268, 2-methyl-5-(3-(piperidine-1-carbonyl)pyrazolo[1,5-a]pyridin-7-yl)benzo[d]isoxazol-3(2H)-one]	> 1.5	≤ 0.1
COc1noc2ccc(-c3cccc4c(C(=O)N5CCCCC5)cnn34)cc12 [Example 269, (7-(3-methoxybenzo[d]isoxazol-5-yl)pyrazolo[1,5-a]pyridin-3-yl)(piperidin-1-yl)methanone]	> 1.5	≤ 0.1
CN(C)c1ncc(-c2cccc3c(C(=O)N4CCCCC4)cnn23)cc1C#N [Example 270, 2-(dimethylamino)-5-(3-(piperidine-1-carbonyl)pyrazolo[1,5-a]pyridin-7-yl)nicotinonitrile]	> 1.5	≤ 0.1
O=C(c1cnn2c(-c3cccc(F)n3)cccc12)N1CCCCC1 [Example 271, (7-(6-fluoropyridin-2-yl)pyrazolo[1,5-a]pyridin-3-yl)(piperidin-1-yl)methanone]	> 1.5	≤ 0.1
O=C(c1cnn2c(-c3cc(F)nc(F)c3)cccc12)N1CCCCC1 [Example 273, (7-(2,6-difluoropyridin-4-yl)pyrazolo[1,5-a]pyridin-3-yl)(piperidin-1-yl)methanone]	> 1.5	≤ 0.1
O=C(Cc1cccnc1)Nc1ccc(-c2cccc3c(C(=O)N4CCCCC4)cnn23)cc1 [Example 274, N-(4-(3-(piperidine-1-carbonyl)pyrazolo[1,5-a]pyridin-7-yl)phenyl)-2-(pyridin-3-yl)acetamide]	> 1.5	≤ 0.1
O=C(c1cnn2c(-c3ccc(F)c(-c4noc(=O)[nH]4)c3)cccc12)N1CCCCC1 [Example 275, 3-[2-fluoro-5-[3-(piperidine-1-carbonyl)pyrazolo[1,5-a]pyridin-7-yl]phenyl]-4H-1,2,4-oxadiazol-5-one]	> 1.5	≤ 0.1
Cc1nc(-c2cc(-c3cccc4c(C(=O)N5CCCCC5)cnn34)ccc2F)no1 [Example 276, [7-[4-fluoro-3-(5-methyl-1,2,4-oxadiazol-3-yl)phenyl]pyrazolo[1,5-a]pyridin-3-yl]-(1-piperidyl)methanone]	> 1.5	≤ 0.1
O=C(c1ncc(-c2cccc3c(C(=O)N4CCCCC4)cnn23)cn1)N1CCC1 [Example 277, [7-[2-(azetidine-1-carbonyl)pyrimidin-5-yl]pyrazolo[1,5-a]pyridin-3-yl]-(1-piperidyl)methanone]	> 1.5	≤ 0.1
O=C(Cc1cccnc1)Nc1c(F)cc(-c2cccc3c(C(=O)N4CCCCC4)cnn23)cc1F [Example 278, N-(2,6-difluoro-4-(3-(piperidine-1-carbonyl)pyrazolo[1,5-a]pyridin-7-yl)phenyl)-2-(pyridin-3-yl)acetamide]	> 1.5	≤ 0.1
O=C(c1cnn2c(-c3cc(F)cc(Cl)c3)cccc12)N1CCCCC1 [Example 279, (7-(3-chloro-5-fluorophenyl)pyrazolo[1,5-a]pyridin-3-yl)(piperidin-1-yl)methanone]	< 1.5	≤ 0.1
CC1c2cc(-c3cccc4c(C(=O)N5CCCCC5)cnn34)cnc2C(=O)N1C (stereo not shown) [Example 280, 5,6-dimethyl-3-(3-(piperidine-1-carbonyl)pyrazolo[1,5-a]pyridin-7-yl)-5,6-dihydro-7H-pyrrolo[3,4-b]pyridin-7-one]	> 1.5	≤ 0.1
O=C(c1cnn2c(-c3cnc(Cl)c(F)c3)cccc12)N1CCCCC1 [Example 281, (7-(6-chloro-5-fluoropyridin-3-yl)pyrazolo[1,5-a]pyridin-3-yl)(piperidin-1-yl)methanone]	> 1.5	≤ 0.1
O=C(c1cnn2c(-c3cc(Cl)nc(Cl)c3)cccc12)N1CCCCC1 [Example 282, (7-(2,6-dichloropyridin-4-yl)pyrazolo[1,5-a]pyridin-3-yl)(piperidin-1-yl)methanone]	< 1.5	≤ 0.1
O=C(c1cnn2c(-c3cc(Cl)cnc3F)cccc12)N1CCCCC1 [Example 283, (7-(5-chloro-2-fluoropyridin-3-yl)pyrazolo[1,5-a]pyridin-3-yl)(piperidin-1-yl)methanone]	< 1.5	≤ 0.1
